ChEMBL document CHEMBL1201861, “Genomics of Drug Sensitity in Cancer screening data, Wellcome Trust Sanger Institute”
pIC50: −log10 of the molar value.

Legend:
Assay in all cases: cells
Type in all cases: functional, cell-based, Homo sapiens
GCIY = details: Homo sapiens, GCIY;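 further: growth inhibition of the human GCIY cell line, read out by a cell viability assay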
Description: SANGER: Inhibition of human GCIY cell growth in a cell viability assay.

NCI-H747 = details: Homo sapiens, NCI-H747;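 further: growth inhibition of human NCI-H747 cells, read out by a cell viability assay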
Description: SANGER: Inhibition of human NCI-H747 cell growth in a cell viability assay.

TE-5 = details: Homo sapiens, TE-5;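 further: inhibition of cell growth, read out by a cell viability assay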
Description: SANGER: Inhibition of human TE-5 cell growth in a cell viability assay.

COLO-824 = details: Homo sapiens, COLO-824
Description: SANGER: Inhibition of human COLO-824 cell growth in a cell viability assay.

SW 962 = details: Homo sapiens, SW 962;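 further: growth inhibition of human SW962 cells, read out by a cell viability assay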
Description: SANGER: Inhibition of human SW962 cell growth in a cell viability assay.

SK-MEL-1 = details: Homo sapiens, SK-MEL-1;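 further: growth inhibition of human SK-MEL-1 cells, read out by a cell viability assay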
Description: SANGER: Inhibition of human SK-MEL-1 cell growth in a cell viability assay.

NCI-H1299 = details: Homo sapiens, NCI-H1299;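 further: growth inhibition of human NCI-H1299 cells, read out by a cell viability assay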
Description: SANGER: Inhibition of human NCI-H1299 cell growth in a cell viability assay.

NB12 = details: Homo sapiens, NB12;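 further: growth inhibition of human NB12 cells, read out by a cell viability assay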
Description: SANGER: Inhibition of human NB12 cell growth in a cell viability assay.

OVCAR-4 = details: Homo sapiens, OVCAR-4;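 further: growth inhibition of human OVCAR-4 cells, measured with a cell viability assay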
Description: SANGER: Inhibition of human OVCAR-4 cell growth in a cell viability assay.

SK-N-FI = details: Homo sapiens, SK-N-FI;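 further: cell viability assay measuring growth inhibition of human SK-N-FI cells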
Description: SANGER: Inhibition of human SK-N-FI cell growth in a cell viability assay.

NCI-H1395 = details: Homo sapiens, NCI-H1395;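 further: cell viability assay read-out quantifying reduced proliferation of human NCI-H1395 cells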
Description: SANGER: Inhibition of human NCI-H1395 cell growth in a cell viability assay.

L-363 = details: Homo sapiens, L-363
Description: SANGER: Inhibition of human L-363 cell growth in a cell viability assay.

L-428 = details: Homo sapiens, L-428
Description: SANGER: Inhibition of human L-428 cell growth in a cell viability assay.

A101D = details: Homo sapiens, A101D;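 further: growth inhibition of the cell line, measured with a viability assay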
Description: SANGER: Inhibition of human A101D cell growth in a cell viability assay.

GOTO = details: Homo sapiens, GOTO;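 further: growth inhibition of GOTO cells, read out by a cell viability assay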
Description: SANGER: Inhibition of human GOTO cell growth in a cell viability assay.

ES4 = details: Homo sapiens, ES4;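 further: growth inhibition of human ES4 cells, read out by a cell viability assay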
Description: SANGER: Inhibition of human ES4 cell growth in a cell viability assay.

HCC2157 = details: Homo sapiens, HCC2157;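 further: growth inhibition of the cancer cell line, read out as cell viability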
Description: SANGER: Inhibition of human HCC2157 cell growth in a cell viability assay.

MPP-89 = details: Homo sapiens, MPP-89;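 further: growth inhibition of human MPP-89 cells, read out with a cell viability assay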
Description: SANGER: Inhibition of human MPP-89 cell growth in a cell viability assay.

NB6 = details: Homo sapiens, NB6;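 further: growth inhibition of NB6 cells, read out by a cell viability assay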
Description: SANGER: Inhibition of human NB6 cell growth in a cell viability assay.

NCI-H720 = details: Homo sapiens, NCI-H720;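 further: growth inhibition of human NCI-H720 cells determined by a cell viability assay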
Description: SANGER: Inhibition of human NCI-H720 cell growth in a cell viability assay.

D283 Med = details: Homo sapiens, D283 Med
Description: SANGER: Inhibition of human D-283MED cell growth in a cell viability assay.

CGTH-W-1 = details: Homo sapiens, CGTH-W-1;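 further: growth inhibition of human CGTH-W-1 cells measured by cell viability assay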
Description: SANGER: Inhibition of human CGTH-W-1 cell growth in a cell viability assay.

NCI-H82 = details: Homo sapiens, NCI-H82;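 further: growth inhibition of NCI-H82 cells, measured with a cell viability readout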
Description: SANGER: Inhibition of human NCI-H82 cell growth in a cell viability assay.

HC-1 = details: Homo sapiens, HC-1;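 further: growth inhibition of HC-1 cells measured by a cell viability assay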
Description: SANGER: Inhibition of human HC-1 cell growth in a cell viability assay.

TGW = details: Homo sapiens, TGW;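 further: growth inhibition of human TGW cells, read out with a cell viability assay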
Description: SANGER: Inhibition of human TGW cell growth in a cell viability assay.

BB65-RCC = details: Homo sapiens, BB65-RCC;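 further: growth inhibition of the cell line, measured with a cell viability assay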
Description: SANGER: Inhibition of human BB65-RCC cell growth in a cell viability assay.

BE-13 = details: Homo sapiens, BE-13;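 further: growth inhibition of human BE-13 cells, measured with a cell viability assay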
Description: SANGER: Inhibition of human BE-13 cell growth in a cell viability assay.

BB30-HNC = details: Homo sapiens, BB30-HNC;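 further: growth inhibition of the cultured cell line, read out by a cell viability assay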
Description: SANGER: Inhibition of human BB30-HNC cell growth in a cell viability assay.

MFH-ino = details: Homo sapiens, MFH-ino;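 further: growth inhibition of human MFH-ino cells, read out by a cell viability assay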
Description: SANGER: Inhibition of human MFH-ino cell growth in a cell viability assay.

MOLT-16 = details: Homo sapiens, MOLT-16;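 further: growth inhibition of human MOLT-16 cells, read out with a cell viability assay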
Description: SANGER: Inhibition of human MOLT-16 cell growth in a cell viability assay.

LS-1034 = details: Homo sapiens, LS-1034
Description: SANGER: Inhibition of human LS-1034 cell growth in a cell viability assay.

EW-24 = details: Homo sapiens, EW-24;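 further: human EW-24 cancer cell line, growth inhibition read out via a cell viability assay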
Description: SANGER: Inhibition of human EW-24 cell growth in a cell viability assay.

A3-KAW = details: Homo sapiens, A3-KAW;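 further: growth inhibition of human A3-KAW cells, read out with a cell viability assay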
Description: SANGER: Inhibition of human A3-KAW cell growth in a cell viability assay.

ES6 = details: Homo sapiens, ES6;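 further: growth inhibition of human ES6 cells, read out with a cell viability assay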
Description: SANGER: Inhibition of human ES6 cell growth in a cell viability assay.

NOMO-1 = details: Homo sapiens, NOMO-1;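 further: growth inhibition of human NOMO-1 cells measured by a cell viability assay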
Description: SANGER: Inhibition of human NOMO-1 cell growth in a cell viability assay.

MSTO-211H = details: Homo sapiens, MSTO-211H
Description: SANGER: Inhibition of human MSTO-211H cell growth in a cell viability assay.

GR-ST = details: Homo sapiens, GR-ST
Description: SANGER: Inhibition of human GR-ST cell growth in a cell viability assay.

NCI-H1650 = details: Homo sapiens, NCI-H1650;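 further: growth inhibition of human NCI-H1650 cells measured by a cell viability assay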
Description: SANGER: Inhibition of human NCI-H1650 cell growth in a cell viability assay.

TE-11 = details: Homo sapiens, TE-11;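 further: growth inhibition of human TE-11 cells, read out by a cell viability assay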
Description: SANGER: Inhibition of human TE-11 cell growth in a cell viability assay.

8-MG-BA = details: Homo sapiens, 8-MG-BA;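 further: growth inhibition of 8-MG-BA cells, read out with a cell viability assay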
Description: SANGER: Inhibition of human 8-MG-BA cell growth in a cell viability assay.

NEC8 = details: Homo sapiens, NEC8;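 further: growth inhibition of human NEC8 cells, read out by a cell viability assay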
Description: SANGER: Inhibition of human NEC8 cell growth in a cell viability assay.

OCUB-M = details: Homo sapiens, OCUB-M;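 further: growth inhibition of the cancer cell line, read out through a cell viability assay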
Description: SANGER: Inhibition of human OCUB-M cell growth in a cell viability assay.

IST-MEL1 = details: Homo sapiens, IST-MEL1;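 further: growth inhibition of the cell line, read out with a cell viability assay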
Description: SANGER: Inhibition of human IST-MEL1 cell growth in a cell viability assay.

HAL-01 = details: Homo sapiens, HAL-01;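 further: growth inhibition of human HAL-01 cells, read out with a cell viability assay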
Description: SANGER: Inhibition of human HAL-01 cell growth in a cell viability assay.

SF-268 = details: Homo sapiens, SF-268;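 further: growth inhibition of SF-268 cells determined with a cell viability assay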
Description: SANGER: Inhibition of human SF268 cell growth in a cell viability assay.

IA-LM = details: Homo sapiens, IA-LM;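 further: cell viability assay measuring growth inhibition of human IA-LM cells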
Description: SANGER: Inhibition of human IA-LM cell growth in a cell viability assay.

J-RT3-T3-5 = details: Homo sapiens, J-RT3-T3-5;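 further: cell viability assay measuring growth inhibition of human J-RT3-T3-5 cells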
Description: SANGER: Inhibition of human J-RT3-T3-5 cell growth in a cell viability assay.

KP-N-YS = details: Homo sapiens, KP-N-YS;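 further: cell viability assay measuring inhibition of cell line growth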
Description: SANGER: Inhibition of human KP-N-YS cell growth in a cell viability assay.

A704 = details: Homo sapiens, A704;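 further: growth inhibition of human A704 cells, read out with a cell viability assay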
Description: SANGER: Inhibition of human A704 cell growth in a cell viability assay.

Cc1cc([N+](=O)[O-])ccc1NS(=O)(=O)c1cc(Cl)ccc1Cl was tested. Which pIC50 (GCIY) did it give?
The pIC50 was 5.53.

What about the pIC50 (NCI-H747) of the same compound?
Its pIC50 is 5.13.

What about the pIC50 (TE-5) of the same compound?
The pIC50 was 5.17.

What about the pIC50 (COLO-824) of the same compound?
Its pIC50 is 4.74.

What about the pIC50 (SW 962) of the same compound?
The pIC50 was 5.33.

And the pIC50 (SK-MEL-1)?
Its pIC50 is less than 4.49.

And the pIC50 (NCI-H1299)?
Its pIC50 is 5.50.

And the pIC50 (NB12)?
Its pIC50 is 4.95.

And the pIC50 (OVCAR-4)?
The pIC50 was 5.34.

And the pIC50 (SK-N-FI)?
The pIC50 was 4.78.

What about the pIC50 (NCI-H1395) of the same compound?
The pIC50 was less than 4.49.

And the pIC50 (L-363)?
Its pIC50 is 5.07.

What about the pIC50 (L-428) of the same compound?
The pIC50 was less than 4.49.

And the pIC50 (A101D)?
Its pIC50 is 5.34.

What about the pIC50 (GOTO) of the same compound?
Its pIC50 is less than 4.49.

And the pIC50 (ES4)?
The pIC50 was 5.12.

And the pIC50 (HCC2157)?
Its pIC50 is 5.06.

And the pIC50 (MPP-89)?
Its pIC50 is 4.70.

And the pIC50 (NB6)?
Its pIC50 is 4.87.

What about the pIC50 (NCI-H720) of the same compound?
Its pIC50 is less than 4.49.

What about the pIC50 (D283 Med) of the same compound?
The pIC50 was 5.40.

And the pIC50 (CGTH-W-1)?
The pIC50 was 4.93.

What about the pIC50 (NCI-H82) of the same compound?
Its pIC50 is 4.74.

And the pIC50 (HC-1)?
The pIC50 was 4.90.

And the pIC50 (TGW)?
The pIC50 was less than 4.49.

And the pIC50 (BB65-RCC)?
Its pIC50 is 5.20.

And the pIC50 (BE-13)?
The pIC50 was 5.12.

And the pIC50 (BB30-HNC)?
Its pIC50 is 5.58.

And the pIC50 (MFH-ino)?
The pIC50 was 6.30.

What about the pIC50 (MOLT-16) of the same compound?
The pIC50 was 5.29.

And the pIC50 (LS-1034)?
The pIC50 was 5.26.

And the pIC50 (EW-24)?
The pIC50 was less than 4.49.

What about the pIC50 (A3-KAW) of the same compound?
Its pIC50 is 5.06.

And the pIC50 (ES6)?
Its pIC50 is 5.52.

And the pIC50 (NOMO-1)?
Its pIC50 is 5.21.

And the pIC50 (MSTO-211H)?
Its pIC50 is less than 4.49.

And the pIC50 (GR-ST)?
The pIC50 was 4.99.

What about the pIC50 (NCI-H1650) of the same compound?
Its pIC50 is 5.07.

What about the pIC50 (TE-11) of the same compound?
The pIC50 was less than 4.49.

And the pIC50 (8-MG-BA)?
The pIC50 was 5.43.

What about the pIC50 (NEC8) of the same compound?
The pIC50 was 4.66.

And the pIC50 (OCUB-M)?
Its pIC50 is 6.09.

What about the pIC50 (IST-MEL1) of the same compound?
Its pIC50 is 4.95.

And the pIC50 (HAL-01)?
The pIC50 was 4.91.

And the pIC50 (SF-268)?
The pIC50 was 5.22.

What about the pIC50 (IA-LM) of the same compound?
The pIC50 was 5.52.

What about the pIC50 (J-RT3-T3-5) of the same compound?
Its pIC50 is 5.27.

And the pIC50 (KP-N-YS)?
Its pIC50 is 4.80.

And the pIC50 (A704)?
The pIC50 was 5.59.

Oc1ccc2ccccc2c1SSc1c(O)ccc2ccccc12 was tested. Which pIC50 (GCIY) did it give?
Its pIC50 is less than 4.49.

What about the pIC50 (NCI-H747) of the same compound?
The pIC50 was less than 4.49.

What about the pIC50 (TE-5) of the same compound?
Its pIC50 is less than 4.49.

What about the pIC50 (COLO-824) of the same compound?
Its pIC50 is less than 4.49.

And the pIC50 (SW 962)?
The pIC50 was less than 4.49.

And the pIC50 (SK-MEL-1)?
The pIC50 was less than 4.49.

What about the pIC50 (NCI-H1299) of the same compound?
The pIC50 was less than 4.49.

What about the pIC50 (NB12) of the same compound?
Its pIC50 is less than 4.49.

And the pIC50 (OVCAR-4)?
Its pIC50 is less than 4.49.

And the pIC50 (SK-N-FI)?
The pIC50 was less than 4.49.

What about the pIC50 (NCI-H1395) of the same compound?
Its pIC50 is less than 4.49.

What about the pIC50 (L-363) of the same compound?
The pIC50 was less than 4.49.

What about the pIC50 (L-428) of the same compound?
The pIC50 was less than 4.49.

What about the pIC50 (A101D) of the same compound?
Its pIC50 is less than 4.49.

What about the pIC50 (GOTO) of the same compound?
The pIC50 was less than 4.49.

And the pIC50 (ES4)?
Its pIC50 is 4.58.

And the pIC50 (HCC2157)?
Its pIC50 is less than 4.49.

And the pIC50 (MPP-89)?
The pIC50 was less than 4.49.

What about the pIC50 (NB6) of the same compound?
Its pIC50 is 5.42.

What about the pIC50 (NCI-H720) of the same compound?
The pIC50 was less than 4.49.

And the pIC50 (D283 Med)?
The pIC50 was less than 4.49.

And the pIC50 (CGTH-W-1)?
Its pIC50 is less than 4.49.

And the pIC50 (NCI-H82)?
Its pIC50 is less than 4.49.

And the pIC50 (HC-1)?
The pIC50 was 5.09.

What about the pIC50 (TGW) of the same compound?
Its pIC50 is less than 4.49.

And the pIC50 (BB65-RCC)?
Its pIC50 is less than 4.49.

And the pIC50 (BE-13)?
The pIC50 was less than 4.49.

And the pIC50 (BB30-HNC)?
Its pIC50 is less than 4.49.

And the pIC50 (MFH-ino)?
The pIC50 was less than 4.49.

And the pIC50 (MOLT-16)?
Its pIC50 is less than 4.49.

And the pIC50 (LS-1034)?
Its pIC50 is less than 4.49.

What about the pIC50 (EW-24) of the same compound?
Its pIC50 is less than 4.49.

And the pIC50 (A3-KAW)?
The pIC50 was less than 4.49.

What about the pIC50 (ES6) of the same compound?
Its pIC50 is less than 4.49.

What about the pIC50 (NOMO-1) of the same compound?
The pIC50 was less than 4.49.

What about the pIC50 (MSTO-211H) of the same compound?
Its pIC50 is less than 4.49.

And the pIC50 (GR-ST)?
The pIC50 was 4.96.

And the pIC50 (NCI-H1650)?
The pIC50 was less than 4.49.

And the pIC50 (TE-11)?
Its pIC50 is less than 4.49.

And the pIC50 (8-MG-BA)?
The pIC50 was less than 4.49.

What about the pIC50 (NEC8) of the same compound?
The pIC50 was less than 4.49.

And the pIC50 (OCUB-M)?
The pIC50 was less than 4.49.

And the pIC50 (IST-MEL1)?
The pIC50 was less than 4.49.

What about the pIC50 (HAL-01) of the same compound?
Its pIC50 is 4.59.

What about the pIC50 (SF-268) of the same compound?
Its pIC50 is less than 4.49.

And the pIC50 (IA-LM)?
Its pIC50 is less than 4.49.

What about the pIC50 (J-RT3-T3-5) of the same compound?
The pIC50 was less than 4.49.

What about the pIC50 (KP-N-YS) of the same compound?
The pIC50 was less than 4.49.

What about the pIC50 (A704) of the same compound?
Its pIC50 is less than 4.49.
